Tested on: New Zealand white rabbits given high-fat, high-sugar feed
Experiment: Pharmacological Test Example 1: serum glucose level in rabbits fed high-fat, high-sugar feed
Format: in vivo
Conditions: for serum glucose level (mean±S.D.): Group 2 (n = 6), high-fat, high-sugar feed containing 1% Compound A from week 4, fasted overnight, feed 35 g/kg/day
From the text: In this test, New Zealand white rabbits each weighing about 2 kg were divided into three groups, i.e., Group 1 consisting of 5 rabbits, Group 2 consisting of 6 rabbits, and Group 3 consisting of 6 rabbits.
The Group 1 rabbits were fed on an ordinary feed (Standard laboratory chow for rabbits, product of Shanghai Shengwang Experimental Animal Ranch (P.R. China)) (Normal Group).
The Group 2 rabbits were given for 4 weeks a high-fat, high-sugar feed prepared by adding 10% lard and 37% sucrose to the above-described standard laboratory chow. After confirming increases in blood glucose level, these rabbits were fed a high-fat, high-sugar feed as described above but containing 1% of the active ingredient (Compound A) of the pharmaceutical composition of the invention for treating diabetes (Experimental Group).
The Group 3 rabbits were fed the high-fat, high-sugar feed prepared by adding 10% lard and 37% sucrose to the standard laboratory chow described above (Control Group).
The rabbits of each group were allowed to eat the respective feeds ad libitum. In all groups, the amount of feed given was 35 g/kg/day per rabbit. The test period (period of feeding) was 24 weeks.
At the beginning of the test (0 week) and 4 weeks, 8 weeks, 12 weeks, 16 weeks, 20 weeks and 24 weeks later, the rabbits of each group fasted overnight, and blood samples were then collected from the auricular artery and assayed to measure the serum glucose level (mg/dl) using a commercially available glucose determination kit for enzymatic assaying (Glucose determination kit (Glucose oxidase-peroxidase method), product of Shanghai Rongsheng Biotech Inc. (P.R China).

Question: CCOP(=O)(Cc1ccc(C(=O)Nc2ccc(Br)cc2C#N)cc1)OCC [Compound A, 4-diethoxyphosphinoylmethyl-N-(4-bromo-2-cyanophenyl)benzamide] was tested. Which “serum glucose level (mean±S.D.)” value (8 weeks later) did it give?
Answer: The value was 124.7 ± 29.2 mg/dL.

Question: What about the “serum glucose level (mean±S.D.)” value (12 weeks later) of the same compound?
Answer: Its value is 84.7 ± 19.5 mg/dL.

Question: What about the “serum glucose level (mean±S.D.)” value (16 weeks later) of the same compound?
Answer: Its value is 85.3 ± 12.8 mg/dL.

Question: What about the “serum glucose level (mean±S.D.)” value (20 weeks later) of the same compound?
Answer: Its value is 90.0 ± 15.7 mg/dL.

Question: What about the “serum glucose level (mean±S.D.)” value (24 weeks later) of the same compound?
Answer: The value was 73.6 ± 6.1 mg/dL.

Question: And the “change in blood glucose level (in words)” value (Group 2 given high-fat, high-sugar feed containing Compound A from 4 weeks after the beginning of the test, 24-week test, versus Control Group 3 with continuous increase)?
Answer: Its value is “significant decrease in blood glucose level over time”.
